Results published in patent US20210278391A1, “COMPOSITIONS AND METHODS FOR TREATING CARDIOVASCULAR AND METABOLIC CONDITIONS” (The Regents of the University of California, priority 2017, published 2021).

Assays:
[1] = tested on: pressure-overloaded heart; test: Transaortic constriction (TAC) pressure overload, BT2 started one week before TAC, echocardiography; format: in vivo, mouse; details: 4 weeks after TAC, BT2 40 mg/kg/d oral gavage
Protocol: PP2Cm germ-line knockout (PP2Cm-KO) mice were generated as previously described (Lu et al. (2009), supra). PP2Cm KO mice were backcrossed for more than 8 generations into a C57BL/6 background. Wild type C57BL/6 mice and PP2Cm KO mice were housed at 22° C. with a 12-hour light, 12-hour dark cycle with free access to water and standard chow. Studies were performed with male mice. Human cohorts of dilated cardiomyopathy and controls were obtained from Columbia and Duke with Institutional Review Board approval. All animal procedures were carried out in accordance with the guidelines and protocols approved by the University of California at Los Angeles Institutional Animal Care and Use Committee (IACUC). Transaortic constriction (TAC) and cardiac echocardiography were performed as reported earlier 17 on mice from different genotypes between 14 and 16 weeks of age. […] Measurements of BCKD activity in mouse cardiac tissue and plasma BCKA/BCAA concentrations were performed as previously described (Tso et al. (2014), supra).
In mice, transverse aortic constriction (TAC) was performed as described (Gao et al. (2016) J Clin Invest. 126:195-206) in anesthetized (pentobarbital 60 mg/kg, IP) and ventilated mice (age 14-16 weeks) to induce hypertrophy and heart failure. […]

[2] = Plasma BCAA/BCKA in ob/ob mice treated with BT2; format: in vivo, mouse; details: BT2 40 mg/kg/day
Protocol: (§1) Animals were euthanized using carbon dioxide asphyxiation followed by cervical dislocation and then dissected. Blood was harvested by cardiac puncture and centrifuged to isolate plasma which was stored at −80° C. Acidified citrate dextrose was used as an anticoagulant. Immediately after blood collection, heart, liver, kidneys, and both hind leg quadriceps muscles were removed and snap frozen in liquid nitrogen.
The endogenous signal from blank plasma was subtracted from each point on the standard curve, and the data were plotted in GraphPad Prism. BCAA concentrations in treated samples were determined based on this standard curve.

ob/ob mice = test: Glucose and insulin tolerance, plasma insulin, food intake, body weight in ob/ob mice treated with BT2; format: in vivo, mouse; details: BT2 40 mg/kg/day
Protocol: as §1
Mice were fasted for 6 hours. For insulin tolerance test, mice were injected (intraperitoneal) with insulin (0.75 U/kg body weight). For glucose tolerance test, mice were injected intraperitoneally with D-glucose (2 g/kg body weight). Experiments were performed between 14:00 and 16:00. Blood was drawn 0, 15, 30, 60, and 120 min after insulin or glucose administration. Blood glucose concentrations were measured through tail bleeding before and at the times indicated after injection. Blood glucose was measured using a portable glucometer (Johnson&Johnson). Plasma insulin and TNFα concentrations were measured by Milliplex Multiplex Immunoassay Kits MMHMAG-44K-14 (Merck Millipore, Darmstadt, Germany).

BCKD = BCKD activity in tissues of high-fat-diet-induced obese (DIO) mice treated with BT2; format: in vivo, mouse; details: BT2 40 mg/kg/day 8 weeks oral gavage
Protocol: as §1
Assays for the BCKD activity were carried out as prescribed previously (Tso et al. (2014), supra). Briefly, frozen tissues were thawed and homogenized in a homogenizing buffer (30 mM KPi, pH 7.5, 3 mM EDTA, 5 mM DTT, 1 mM KIC, 3% fetal bovine serum, 5% Triton X-100, and 1 μM leupeptin). Samples were spun at 25,000×g and supernatants were collected. Diluted samples were placed in 24-well assay plates with assay buffer (30 mMKPi, pH7.5, 0.4 mM CoA, 3 mM NAD, 5% fetal bovine serum, 2 mM thiamine diphosphate, 2 mM MgCl2, and 65 μg of human E3). Keto [1-^14C] isovalerate substrate was added and assay plates were incubated at 37° C. for 30 min. 20% TCA solution was added to stop the reactions. Assay plates were incubated further at 37° C. for 45 min. ^14CO2 trapped on 2 M NaOH soaked filter wicks was counted in a liquid scintillation counter.

[3] = tested on: pressure-overloaded mouse heart; test: TAC heart failure model with preexisting dysfunction, BT2 from 2 weeks post-TAC for 6 weeks, echocardiography and survival; format: in vivo
Protocol: In mice, transverse aortic constriction (TAC) was performed as described (Lee et al. (2011) Circulation Research 109:1332-1341) in anesthetized (pentobarbital 60 mg/kg, IP) and ventilated mice (age 12-14 weeks) to induce hypertrophy and heart failure. After left anterolateral thoracotomy with blunt dissection through the intercostal muscles, aortic constriction was induced by ligating the transverse aorta around a 27½-gauge blunt needle using 6-0 silk suture. The needle was subsequently removed. Sham-operated mice underwent a similar surgical procedure without constriction of the aorta. All mice were maintained in the same environment with regular lab chow and water ad libitum. At the end of the experiments, animals were euthanized and the hearts and lungs were removed and weighed. Hearts were dissected and tissues were either immediately immersed into 4% buffered formaldehyde or quickly frozen in liquid nitrogen for further experiments.

[4] = after 5 weeks post-TAC (3 weeks post-treatment), speckle tracking
[5] = by 2 weeks of BT2 treatment (4 weeks post-TAC)

In the case of O=C(O)c1sc2cc(Cl)ccc2c1Cl [BT2, 3,6-dichlorobenzo[b]thiophene-2-carboxylic acid], the chamber dilation [1] is reported as “reduced”, the “left ventricular ejection fraction” value [1] is reported as “significantly preserved” and the “magnitudes of reductions in plasma BCKA concentrations (vs BCAA)” value [2] is reported as “far more pronounced”. The “plasma BCAA levels” value [2] was “significantly lowered”, the glucose tolerance (ob/ob mice) was “significantly improved” and the hyperinsulinemia (ob/ob mice) was “attenuation”. The insulin sensitivity (ob/ob mice) was “significantly improved”, the “BCKD activity in heart, muscle liver and kidney” value (BCKD) was “augments” and the “longitudinal early diastolic strain rate (SRe)” value ([3]; 5 weeks post-TAC) was “remarkably improved”. The “chamber size (ΔLVIDs, ΔLV Vols)” value ([3]; BT2 treated mouse hearts post-TAC) was “stable maintenance”, the myocardial strain [3, 4] was “significantly improved” and the myocardial strain rate [3, 4] was “significantly improved”. The “increase of EF from baseline (week 2)” value [3, 5] was 6.0±3.4 points, the “increase of FS from baseline (week 2)” value [3, 5] was 3.5±1.9 points and the systolic dysfunction ([3]; continuation of BT2 for additional 4 weeks) was “additional alleviations”. The “beneficial effect on SRe at radial circumferential planes” value ([3]; during the treatment period) was “dispersity”, the mouse survival ([3]; from two weeks after treatment) was “improved” and the “systolic velocity and displacement in longitudinal and radial planes” value ([3]; post-TAC) was “increase”. The systolic function ([3]; pressure-overloaded mouse heart, six weeks treatment) was “preserved” and the “pressure-overload-induced cardiac structural remodeling” value ([3]; six weeks treatment) was “alleviated”.
